Assay results reported in patent US9802921B2, “Fluoromethyl-substituted pyrrole carboxamides iv” (Grünenthal GmbH, priority 2013, dated 2017).

Target: T1, Human CaV2.2 channels (Homo sapiens, UniProt Q00975)
T1 construct: expressed in transfected cells
Assay: Fluorescent assay for CaV2.2 channels using potassium depolarization to induce channel opening (FLIPR, Fluo 4)
Format: cell-based
Conditions: read-out: Activity Category: %-Inhib (CaV2.2) @3 μM @30 mM KCl; 3 μM test compound; 30 mM KCl as printed; HEK293 cells stably expressing human CaV2.2
Source text: In the process, the Ca^2+ influx is quantified in the FLIPR assay with the aid of a Ca^2+-sensitive dye (type Fluo-4, Molecular Probes Europe BV, Leiden, the Netherlands) in a fluorescent imaging plate reader (FLIPR 3, Molecular Devices, Sunnyvale, USA), as described hereinafter.
Human CaV2.2 channels were stably expressed in HEK293 cells together with alpha2-delta and beta subunits of voltage gated calcium channels. In addition, an inwardly rectifying potassium channel (Kir2.3) was stably expressed in these cells to augment control of the cell membrane potential by the concentration of extracellular potassium ions. Raise of the extracellular potassium concentration leads to depolarization of the membrane potential and thus regulates the voltage dependent state of CaV2.2 channels. For preparation, cells were seeded in black poly-D-lysine coated 96-well plates (Becton Dickinson, Biocoat 4640) in 100 μL medium [500 mL DMEM/F-12 plus Glutamax (Invitrogen 31331-093) plus 5.5 mL MEM NEAA 100× (Invitrogen 11140-035) plus 50 mL FBS decomplemented (Invitrogen 10270-106) plus 200 μg/mL Geneticin (Invitrogen 10131-027) plus 50 μg/mL Hygromycin B (Invitrogen 10687-010) plus 2 μg/mL Blasticidin (anti-bl5b Invivo-Gen) plus 0.2 μg/mL Puromycin (A 11138-03)] at a cell density of 30.000 cells per well. Plates were incubated at 37° C. (5% CO2) for 20 to 23 h. On the day of experiment medium was discarded and cells were loaded with Fluo 4 by addition of 100 μL of basic assay buffer (10 mM HEPES, 1 mM KCl, 149 mM NaCl, 0.8 mM CaCl2, 1.7 mM MgCl2, 10 mM Glucose, 0.1% BSA. pH 7.4) containing 2 μM Fluo 4 (Molecular Probes; F-14201), 0.01% pluronic acid (Molecular Probes; P-6866) and 2.5 mM probenecid (Molecular Probes; P36400). Cells were incubated in the dark at 25° C. for 60 min. Then dye containing buffer was discarded and 100 μL basic (1 mM KCl) or alternative (30 mM KCl) assay buffer was added. The alternative assay buffer contained altered concentrations of KCl (30 mM) and NaCl (120 mM) and was used in order to promote the inactivated channel state. After that 25 μL of basic or alternative assay buffer with or without test compound were added and cells were incubated again in the dark at 25° C. for 15 min. Fluorescence intensity was measured on a FLIPR 3 instrument (Molecular Devices Corp., Sunnyvale, Calif.) with excitation at 480 nm and emission at 535 nm. After continuously reading fluorescence for 30 sec, 50 μL of basic assay buffer containing 210 mM KCl (NaCl omitted) were added for depolarization. Peak fluorescent signal intensity was determined and the amplitude of the peak signal, normalized to base line, was used to measure channel inhibition by test compounds.

T1 sequence (Q00975 whole entry): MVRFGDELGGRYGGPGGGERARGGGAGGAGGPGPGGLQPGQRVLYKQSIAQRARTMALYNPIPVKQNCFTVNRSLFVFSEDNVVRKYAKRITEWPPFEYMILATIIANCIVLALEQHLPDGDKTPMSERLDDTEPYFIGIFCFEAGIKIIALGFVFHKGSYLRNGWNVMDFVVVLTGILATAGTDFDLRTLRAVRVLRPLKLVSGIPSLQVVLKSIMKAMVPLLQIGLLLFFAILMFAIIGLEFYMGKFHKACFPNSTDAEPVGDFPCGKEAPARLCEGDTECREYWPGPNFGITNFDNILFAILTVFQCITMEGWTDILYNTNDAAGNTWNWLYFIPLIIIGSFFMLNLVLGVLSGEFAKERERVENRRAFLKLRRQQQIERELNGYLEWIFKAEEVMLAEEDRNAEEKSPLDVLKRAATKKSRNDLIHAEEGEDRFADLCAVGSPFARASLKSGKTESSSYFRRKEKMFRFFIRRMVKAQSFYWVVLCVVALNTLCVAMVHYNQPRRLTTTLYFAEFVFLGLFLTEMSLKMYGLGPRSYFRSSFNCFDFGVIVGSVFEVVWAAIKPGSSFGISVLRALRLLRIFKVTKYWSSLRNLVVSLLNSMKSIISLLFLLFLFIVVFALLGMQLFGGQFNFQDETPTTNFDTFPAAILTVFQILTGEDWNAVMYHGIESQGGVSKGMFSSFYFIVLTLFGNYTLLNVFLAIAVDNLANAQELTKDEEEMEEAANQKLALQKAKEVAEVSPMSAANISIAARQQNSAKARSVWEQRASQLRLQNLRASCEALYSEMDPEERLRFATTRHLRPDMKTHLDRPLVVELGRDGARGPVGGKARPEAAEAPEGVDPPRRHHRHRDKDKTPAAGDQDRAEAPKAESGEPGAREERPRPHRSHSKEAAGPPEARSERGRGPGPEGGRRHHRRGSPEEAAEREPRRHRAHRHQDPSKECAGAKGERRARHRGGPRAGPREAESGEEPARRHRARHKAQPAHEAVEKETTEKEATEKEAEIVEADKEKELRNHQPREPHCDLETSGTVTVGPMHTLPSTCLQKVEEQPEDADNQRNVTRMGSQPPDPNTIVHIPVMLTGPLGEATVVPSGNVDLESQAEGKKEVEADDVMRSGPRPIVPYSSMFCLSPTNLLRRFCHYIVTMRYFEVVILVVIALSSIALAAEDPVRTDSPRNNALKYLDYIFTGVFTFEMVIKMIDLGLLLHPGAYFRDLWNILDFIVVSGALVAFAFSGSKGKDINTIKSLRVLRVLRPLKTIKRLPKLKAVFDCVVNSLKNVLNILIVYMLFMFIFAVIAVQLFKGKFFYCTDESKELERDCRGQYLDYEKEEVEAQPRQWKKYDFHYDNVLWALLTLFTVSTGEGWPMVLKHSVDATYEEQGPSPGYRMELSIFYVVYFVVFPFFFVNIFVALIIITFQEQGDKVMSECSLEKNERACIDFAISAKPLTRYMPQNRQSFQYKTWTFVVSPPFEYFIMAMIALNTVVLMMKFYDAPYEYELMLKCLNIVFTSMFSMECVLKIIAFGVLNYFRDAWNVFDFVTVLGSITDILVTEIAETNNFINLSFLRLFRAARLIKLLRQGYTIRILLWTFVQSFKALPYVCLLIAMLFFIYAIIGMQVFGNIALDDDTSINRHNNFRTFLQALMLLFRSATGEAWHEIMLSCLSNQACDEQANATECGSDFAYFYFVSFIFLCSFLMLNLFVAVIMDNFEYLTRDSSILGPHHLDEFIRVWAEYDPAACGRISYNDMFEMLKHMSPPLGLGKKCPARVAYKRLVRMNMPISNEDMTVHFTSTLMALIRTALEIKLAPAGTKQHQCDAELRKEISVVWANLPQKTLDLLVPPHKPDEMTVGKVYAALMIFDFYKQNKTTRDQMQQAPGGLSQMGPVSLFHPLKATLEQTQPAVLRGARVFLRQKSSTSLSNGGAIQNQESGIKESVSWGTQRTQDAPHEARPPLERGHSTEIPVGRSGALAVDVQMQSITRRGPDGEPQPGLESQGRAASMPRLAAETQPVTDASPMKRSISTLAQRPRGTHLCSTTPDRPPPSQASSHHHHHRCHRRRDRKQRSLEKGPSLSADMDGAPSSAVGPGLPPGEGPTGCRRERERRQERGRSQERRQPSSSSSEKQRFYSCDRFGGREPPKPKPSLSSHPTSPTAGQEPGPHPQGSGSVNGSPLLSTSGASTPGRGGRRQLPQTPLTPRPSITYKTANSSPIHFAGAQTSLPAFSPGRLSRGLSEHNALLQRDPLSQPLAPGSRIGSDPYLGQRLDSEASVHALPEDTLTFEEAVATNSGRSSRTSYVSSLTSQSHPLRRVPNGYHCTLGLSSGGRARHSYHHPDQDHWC
T1 sequence (P54289 25-1103, further chain): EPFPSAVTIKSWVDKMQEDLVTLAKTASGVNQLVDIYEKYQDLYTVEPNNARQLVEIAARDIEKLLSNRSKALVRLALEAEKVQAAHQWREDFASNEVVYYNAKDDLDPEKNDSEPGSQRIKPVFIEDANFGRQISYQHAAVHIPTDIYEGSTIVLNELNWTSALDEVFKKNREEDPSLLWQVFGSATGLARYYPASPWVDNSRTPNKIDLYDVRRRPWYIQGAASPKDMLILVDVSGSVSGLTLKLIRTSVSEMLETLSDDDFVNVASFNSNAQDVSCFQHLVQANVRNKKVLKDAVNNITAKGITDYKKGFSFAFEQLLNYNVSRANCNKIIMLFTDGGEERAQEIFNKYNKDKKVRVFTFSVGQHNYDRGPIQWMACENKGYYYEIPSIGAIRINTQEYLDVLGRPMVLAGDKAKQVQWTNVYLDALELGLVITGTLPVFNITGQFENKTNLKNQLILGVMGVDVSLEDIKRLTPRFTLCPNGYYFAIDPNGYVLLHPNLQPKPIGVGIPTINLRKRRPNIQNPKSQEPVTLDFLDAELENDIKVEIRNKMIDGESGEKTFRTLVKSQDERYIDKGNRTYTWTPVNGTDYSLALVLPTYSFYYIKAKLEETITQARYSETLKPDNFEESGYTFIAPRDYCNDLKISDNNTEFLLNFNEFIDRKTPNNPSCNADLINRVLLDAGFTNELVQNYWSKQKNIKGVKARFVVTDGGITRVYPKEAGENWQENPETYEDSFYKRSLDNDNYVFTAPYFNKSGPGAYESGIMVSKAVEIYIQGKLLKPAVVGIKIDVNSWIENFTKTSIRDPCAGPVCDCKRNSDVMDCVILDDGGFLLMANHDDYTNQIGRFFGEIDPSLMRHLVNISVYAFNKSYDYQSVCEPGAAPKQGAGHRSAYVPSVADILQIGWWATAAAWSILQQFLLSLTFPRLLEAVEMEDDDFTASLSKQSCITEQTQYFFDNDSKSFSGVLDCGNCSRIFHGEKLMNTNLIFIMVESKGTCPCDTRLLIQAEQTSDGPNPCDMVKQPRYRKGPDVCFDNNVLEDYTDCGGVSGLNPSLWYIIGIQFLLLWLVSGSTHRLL
T1 sequence (P54284 whole entry, further chain): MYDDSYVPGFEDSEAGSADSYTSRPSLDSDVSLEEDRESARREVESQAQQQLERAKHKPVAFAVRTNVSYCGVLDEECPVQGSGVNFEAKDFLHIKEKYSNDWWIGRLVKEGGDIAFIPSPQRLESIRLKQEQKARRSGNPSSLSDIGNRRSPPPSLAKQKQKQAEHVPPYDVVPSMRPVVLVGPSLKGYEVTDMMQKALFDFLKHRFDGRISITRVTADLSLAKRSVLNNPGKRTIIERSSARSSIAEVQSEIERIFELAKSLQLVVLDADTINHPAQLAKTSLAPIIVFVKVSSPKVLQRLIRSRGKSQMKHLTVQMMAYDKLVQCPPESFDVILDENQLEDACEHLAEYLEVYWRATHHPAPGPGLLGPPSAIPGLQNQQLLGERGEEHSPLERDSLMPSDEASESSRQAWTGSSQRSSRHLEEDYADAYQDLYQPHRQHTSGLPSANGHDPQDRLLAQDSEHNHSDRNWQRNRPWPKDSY

| SMILES | inhibition at 3 µM [%] |
| --- | --- |
| Cc1noc(Cn2c(C(=O)N(C)CCS(C)(=O)=O)c(-c3ccc(Cl)cc3)c(C)c2C(F)(F)F)n1 [Example 015, 3-(4-Chlorophenyl)-N,4-dimethyl-1-[(3-methyl-[1,2,4]oxadiazol-5-yl)-methyl]-N-(2-methylsulfonyl-ethyl)-5-(trifluoromethyl)-1H-pyrrole-2-carboxylic acid amide] | 75 to 95 |
| Cc1c(-c2ccc(Cl)cc2)c(C(=O)N2CCOCC2)n(Cc2ccnn2C)c1C(F)(F)F [Example 016, [3-(4-Chlorophenyl)-4-methyl-1-[(2-methyl-2H-pyrazol-3-yl)-methyl]-5-(trifluoromethyl)-1H-pyrrol-2-yl]-morpholin-4-yl-methanone] | 75 to 95 |
| Cc1c(-c2ccc(Cl)cc2)c(C(=O)N2CCOCC2)n(Cc2cn(C)nn2)c1C(F)(F)F [Example 017, [3-(4-Chlorophenyl)-4-methyl-1-[(1-methyl-1H-[1,2,3]triazol-4-yl)-methyl]-5-(trifluoromethyl)-1H-pyrrol-2-yl]-morpholin-4-yl-methanone] | 40 to 75 |
| Cc1noc(Cn2c(C(=O)N3CCOCC3)c(-c3ccc(Cl)cc3)c(C)c2C(F)(F)F)n1 [Example 018, [3-(4-Chlorophenyl)-4-methyl-1-[(3-methyl-[1,2,4]oxadiazol-5-yl)-methyl]-5-(trifluoromethyl)-1H-pyrrol-2-yl]-morpholin-4-yl-methanone] | > 95 |
| Cc1c(-c2ccc(Cl)cc2)c(C(=O)N2CCOCC2)n(Cc2ncn(C)n2)c1C(F)(F)F [Example 019, [3-(4-Chlorophenyl)-4-methyl-1-[(1-methyl-1H-[1,2,4]triazol-3-yl)-methyl]-5-(trifluoromethyl)-1H-pyrrol-2-yl]-morpholin-4-yl-methanone] | 75 to 95 |
| Cc1c(-c2ccc(Cl)cc2)c(C(=O)N2CCS(=O)(=O)CC2)n(Cc2cn(C)cn2)c1C(F)(F)F [Example 022, [3-(4-Chlorophenyl)-4-methyl-1-[(1-methyl-1H-imidazol-4-yl)-methyl]-5-(trifluoromethyl)-1H-pyrrol-2-yl]-(1,1-dioxo-[1,4]thiazinan-4-yl)-methanone] | 40 to 75 |
| Cc1c(-c2ccc(Cl)cc2)c(C(=O)N2CCOCC2)n(Cc2cnn(C)c2)c1C(F)(F)F [Example 023, [3-(4-Chlorophenyl)-4-methyl-1-[(1-methyl-1H-pyrazol-4-yl)-methyl]-5-(trifluoromethyl)-1H-pyrrol-2-yl]-morpholin-4-yl-methanone] | > 95 |
| Cc1c(-c2ccc(Cl)cc2)c(C(=O)N2CCOCC2)n(Cc2nncs2)c1C(F)(F)F [Example 024, [3-(4-Chlorophenyl)-4-methyl-1-([1,3,4]thiadiazol-2-yl-methyl)-5-(trifluoromethyl)-1H-pyrrol-2-yl]-morpholin-4-yl-methanone] | 40 to 75 |
| CN(CC(C)(C)C)C(=O)c1c(-c2ccc(Cl)cc2)cc(C(F)(F)F)n1Cc1nccn1C [Example 025, 3-(4-Chlorophenyl)-N-(2,2-dimethyl-propyl)-N-methyl-1-[(1-methyl-1H-imidazole-2-yl)-methyl]-5-(trifluoromethyl)-1H-pyrrole-2-carboxylic acid amide] | 75 to 95 |
| CN(CC(C)(C)C)C(=O)c1c(-c2ccc(Cl)cc2)cc(C(F)(F)F)n1Cc1cncn1C [Example 026, 3-(4-Chlorophenyl)-N-(2,2-dimethyl-propyl)-N-methyl-1-[(3-methyl-3H-imidazole-4-yl)-methyl]-5-(trifluoromethyl)-1H-pyrrole-2-carboxylic acid amide] | 75 to 95 |
| CN(CC(C)(C)C)C(=O)c1c(-c2ccc(Cl)cc2)cc(C(F)(F)F)n1Cc1nncn1C [Example 027, 3-(4-Chlorophenyl)-N-(2,2-dimethyl-propyl)-N-methyl-1-[(4-methyl-4H-[1,2,4]triazol-3-yl)-methyl]-5-(trifluoromethyl)-1H-pyrrole-2-carboxylic acid amide] | 40 to 75 |
| Cc1c(-c2ccc(Cl)cc2)c(C(=O)N2CCOCC2)n(Cc2cncc(Cl)c2)c1C(F)(F)F [Example 028, [3-(4-Chlorophenyl)-1-[(5-chloro-pyridin-3-yl)-methyl]-4-methyl-5-(trifluoromethyl)-1H-pyrrol-2-yl]-morpholin-4-yl-methanone] | > 95 |
| CN(CC(C)(C)C)C(=O)c1c(-c2ccc(Cl)cc2)cc(C(F)(F)F)n1Cc1ccc(F)cn1 [Example 029, 3-(4-Chlorophenyl)-N-(2,2-dimethyl-propyl)-1-[(5-fluoro-pyridin-2-yl)-methyl]-N-methyl-5-(trifluoromethyl)-1H-pyrrole-2-carboxylic acid amide] | > 95 |
| Cc1cnc(Cn2c(C(F)(F)F)cc(-c3ccc(Cl)cc3)c2C(=O)N(C)CC(C)(C)C)cn1 [Example 030, 3-(4-Chlorophenyl)-N-(2,2-dimethyl-propyl)-N-methyl-1-[(5-methyl-pyrazin-2-yl)-methyl]-5-(trifluoromethyl)-1H-pyrrole-2-carboxylic acid amide] | > 95 |
| CC1(C)CN(C(=O)c2c(-c3ccc(F)cc3)cc(C(F)(F)F)n2Cc2ncccn2)CCO1 [Example 031, (2,2-Dimethyl-morpholin-4-yl)-[3-(4-fluorophenyl)-1-(pyrimidin-2-yl-methyl)-5-(trifluoromethyl)-1H-pyrrol-2-yl]-methanone] | 40 to 75 |
| CN(CC(C)(C)C)C(=O)c1c(-c2ccc(Cl)cc2)cc(C(F)(F)F)n1Cc1ccnc(C(F)(F)F)n1 [Example 033, 3-(4-Chlorophenyl)-N-(2,2-dimethyl-propyl)-N-methyl-5-(trifluoromethyl)-1-[[2-(trifluoromethyl)-pyrimidin-4-yl]-methyl]-1H-pyrrole-2-carboxylic acid amide] | 40 to 75 |
| Cc1ncc(Cn2c(C(F)(F)F)cc(-c3ccc(Cl)cc3)c2C(=O)N(C)CC(C)(C)C)cn1 [Example 034, 3-(4-Chlorophenyl)-N-(2,2-dimethyl-propyl)-N-methyl-1-[(2-methyl-pyrimidin-5-yl)-methyl]-5-(trifluoromethyl)-1H-pyrrole-2-carboxylic acid amide] | 75 to 95 |
| Cc1ccnc(Cn2c(C(F)(F)F)cc(-c3ccc(Cl)cc3)c2C(=O)N(C)CC(C)(C)C)n1 [Example 036, 3-(4-Chlorophenyl)-N-(2,2-dimethyl-propyl)-N-methyl-1-[(4-methyl-pyrimidin-2-yl)-methyl]-5-(trifluoromethyl)-1H-pyrrole-2-carboxylic acid amide] | > 95 |
| CN(CC(C)(C)C)C(=O)c1c(-c2ccc(Cl)cc2)cc(C(F)(F)F)n1Cc1ncccn1 [Example 037, 3-(4-Chlorophenyl)-N-(2,2-dimethyl-propyl)-N-methyl-1-(pyrimidin-2-yl-methyl)-5-(trifluoromethyl)-1H-pyrrole-2-carboxylic acid amide] | > 95 |
| Cc1c(-c2ccc(Cl)cc2)c(C(=O)N(C)CCS(C)(=O)=O)n(Cc2ccc(F)cn2)c1C(F)(F)F [Example 038, 3-(4-Chlorophenyl)-1-[(5-fluoro-pyridin-2-yl)-methyl]-N,4-dimethyl-N-(2-methylsulfonyl-ethyl)-5-(trifluoromethyl)-1H-pyrrole-2-carboxylic acid amide] | > 95 |
| Cc1c(-c2ccc(Cl)cc2)c(C(=O)N(C)CCS(C)(=O)=O)n(Cc2ncccn2)c1C(F)(F)F [Example 039, 3-(4-Chlorophenyl)-N,4-dimethyl-N-(2-methylsulfonyl-ethyl)-1-(pyrimidin-2-yl-methyl)-5-(trifluoromethyl)-1H-pyrrole-2-carboxylic acid amide] | 75 to 95 |
| Cc1c(-c2ccc(Cl)cc2)c(C(=O)N2CCOC(C)(C)C2)n(Cc2ncccn2)c1C(F)(F)F [Example 040, [3-(4-Chlorophenyl)-4-methyl-1-(pyrimidin-2-yl-methyl)-5-(trifluoromethyl)-1H-pyrrol-2-yl]-(2,2-dimethyl-morpholin-4-yl)-methanone] | 75 to 95 |
| COc1cccc(Cn2c(C(=O)N3CCOCC3)c(-c3ccc(Cl)cc3)c(C)c2C(F)(F)F)n1 [Example 041, [3-(4-Chlorophenyl)-1-[(6-methoxy-pyridin-2-yl)-methyl]-4-methyl-5-(trifluoromethyl)-1H-pyrrol-2-yl]-morpholin-4-yl-methanone] | > 95 |
